Assays:
Assay type in all cases: cell-based, human
MC-1R [1] = experiment: MC-1R mRNA expression by quantitative RT-PCR in melanocytes put in contact with actives; details: mRNA relative to actin, multiple of untreated control, 24 hours, same conditions as Example 3
μ opioid R [2] = experiment: μ opioid R mRNA expression by quantitative RT-PCR in melanocytes put in contact with actives; details: mRNA relative to actin, multiple of untreated control, 24 hours, same conditions as Example 3
POMC [3] = experiment: POMC mRNA expression by quantitative RT-PCR in melanocytes put in contact with actives; details: mRNA relative to actin, multiple of untreated control, 24 hours, same conditions as Example 3
Description: The active components are tested for keratinocytes after dissolution in the culturing environment: usually between 0.1% and 2% (v/v) for plants and biotechnological hydrolysates and in particular from 0.5% to 1% and usually between 0.001% and 0.01% for characterized molecules. The present results are obtained with 1% in the culturing environment for plant extracts and biotechnological hydrolysates, and with 0.01% for characterized molecules.
After the contact time of the actives with the cells, for example 24 hours, the environments are eliminated and the cells conserved, for example by freeze-drying at −80° C. after a rinsing with 7.4 pH phosphate solution. The total RNA is extracted, for example, using a 96-well extraction kit on silica columns and divided onto a 96-well spectrophotometer at 260 nm (purity indicator: dosage of proteins at 280 nm). The RNA is diluted, for example at 5 ng/μl. […]
(§1) The parameters of amplification have usually been the following: The technique of RT-PCR in real time is conducted with the “Quanti Ted SYBR Green RT-PCR” kit (Qiagen, France) on wells containing mRNA, in an OPTICON thermocycler, which carries out cycles of amplification. […] At the end of each cycle, fluorescence, which is proportional to the number of fragments amplified, is read. […]

MC-1R [4] = experiment: MC-1R mRNA expression by quantitative RT-PCR in keratinocytes put in contact with actives; details: mRNA relative to actin, multiple of untreated control, 24 hours, 1% plant extracts and biotechnological hydrolysates, 0.01% characterized molecules
Excerpt: (§2) In particular, the extracts are obtained by macerating plants (preferably roots, rhizomes, stems, bark, flowers, fruits, seeds, germs, or leaves) at 1-10% (p/p), usually 1-5% in a solvent or a mixture of solvents, usually a mixture of water and alcohol, glycol, or polyol (such as ethanol, glycerol, butylene glycol and other glycols, xylitol, etc.) 100/0 to 0/100, and preferably in water. The extracts obtained are then filtered or distilled in order to recover the soluble portion, which is then filtered, preferably at 0.45 μm. Biotechnological hydrolysates are obtained via the fermentation of plant extracts in the presence of microorganisms usually from the family of lactic bacteria, in particular bactobacillus plantarum, or paracasei, and bifidobacterium, in particular longum or Saccharomyces. These hydrolysates are then filtered, preferably to 0.45 μm, in order to obtain the active components. […]
as §1

μ opioid R [5] = experiment: μ opioid R mRNA expression by quantitative RT-PCR in keratinocytes put in contact with actives; details: mRNA relative to actin, multiple of untreated control, 24 hours, 1% plant extracts and biotechnological hydrolysates, 0.01% characterized molecules
Excerpt: as §2, §1

MC-2R [6] = experiment: MC-2R mRNA expression by quantitative RT-PCR in keratinocytes put in contact with actives; details: mRNA relative to actin, multiple of untreated control, 24 hours, 1% plant extracts and biotechnological hydrolysates, 0.01% characterized molecules
Excerpt: as §2, §1

POMC [7] = experiment: POMC mRNA expression by quantitative RT-PCR in keratinocytes put in contact with actives; details: mRNA relative to actin, multiple of untreated control, 24 hours, 1% plant extracts and biotechnological hydrolysates, 0.01% characterized molecules
Excerpt: as §2, §1

μ opioid receptor = experiment: Detection of μ opioid receptor protein in keratinocytes after action of active components (electrophoresis, immunodetection, image analysis); details: semi-quantification via image analysis, multiple of control
Description: (§3) The cells were cultivated at 37° C. in an atmosphere of 5% CO2 in the K-SFM environment K-SFM (Invitrogen) containing BPF (25 mg), EGF (2.5 μg), and normocin.
(§4) The cells were washed once with PBS solution, and the proteins were extracted at 30 min at 4° C. in lysis solution (Tris 50 mM, NaCl 250 mM, pH 7.5, 1% triton), in the presence of protease inhibitors. The lysates were centrifuged for 15 minutes at 13,000 g. The floaters are diluted with Laemmli solution in the presence of beta mercaptoethanol before electrophoresis.
(§5) For immunodetection, the proteins are separated via electrophoresis in 4-12% SDS-polyacrylamide gel. The proteins were transferred onto a nitrocellulose membrane (Biorad). The membranes are then saturated for one hour at ambient temperature in TBS solution with 3% BSA. The proteins are finally immunodetected after incubation of the primary antibody at 4° C. all night, followed by the secondary antibody coupled with Alexa 488 (invitrogen), 1 hour at ambient temperature.
(§6) The antibodies were used in the following dilution: 5 μg/mL anti-MC-1R, 5 μg/mL anti-MC-2R, and 1/1000 anti-μ opioid R.
(§7) Semi-quantification was carried out via image analysis. The actives are the following and are the subject of table IV.

MC-2R [8] = experiment: Detection of MC-2R protein in keratinocytes after action of active components (electrophoresis, immunodetection, image analysis); details: semi-quantification via image analysis, multiple of control
Description: as §3, §4, §5, §6, §7

Structure (SMILES)	MC-1R Control X: (MC-1R [1])	μ opioid R Control X: (μ opioid R [2])	POMC Control X: (POMC [3])	MC-1R Control X: (MC-1R [4])	μ opioid R Control X: (μ opioid R [5])	MC-2R Control X: (MC-2R [6])	POMC Control X: (POMC [7])	μ opioid R Control X: (μ opioid receptor)	MC-2R Control X: (MC-2R [8])
Cc1nc(C(=O)O)cc2c1[nH]c1ccccc12 [1 methyl beta carbolin-3-carboxylic acid]	1.0 Control X	1.0 Control X	3.3 Control X	–	–	–	–	–	–
C/C=C(/C)C(=O)OC1CC2(C)CCC(C(C)C)C2(O)CCC1(C)O (stereo not drawn) [(Z)-decahydro-6,8a-dihydroxy-1-isopropyl-3a,6-dimethylazulen-5-yl 2-methylbut-2-enoate]	–	–	–	1.0 Control X	1.0 Control X	18.5 Control X	1 Control X	1.37 Control X	1.99 Control X
CC1=CC(=O)C2=C(C)CC(OC(=O)Cc3ccccc3)C3C(C)C(=O)OC3C12 (stereo not drawn) [Phenyl-acetic acid 3,6,9-trimethyl-2,7-dioxo-2,3,3a,4,5,7,9a,9b-octahydro-azuleno[4,5-b]furan-4-yl]	–	–	–	20.0 Control X	1.0 Control X	20.0 Control X	1 Control X	1.66 Control X	1.96 Control X

From US20100209407A1, “MC-1R, MC-2R, AND/OR MU OPIOID RECEPTORS MODULATION” (BASF BEAUTY CARE SOLUTIONS FRANCE S.A.S., priority 2007, published 2010)
